Data reported in US9120791B2, “Indolizine compounds, a process for their preparation and pharmaceutical compositions containing them” (LES LABORATOIRES SERVIER, priority 2012, dated 2015).
Counter-ions that a name gives are not always drawn. Like-named read-outs stand apart in the source and are kept apart here.

Key:
Bcl-2 protein = Bcl-2 protein (Homo sapiens (Human), UniProt P10415); experiment: Inhibition of Bcl-2 by the fluorescence polarisation technique; type: binding; conditions: read-out: IC50 (nM) Bcl-2 FP
Bcl-2 protein, sequence (P10415 whole entry): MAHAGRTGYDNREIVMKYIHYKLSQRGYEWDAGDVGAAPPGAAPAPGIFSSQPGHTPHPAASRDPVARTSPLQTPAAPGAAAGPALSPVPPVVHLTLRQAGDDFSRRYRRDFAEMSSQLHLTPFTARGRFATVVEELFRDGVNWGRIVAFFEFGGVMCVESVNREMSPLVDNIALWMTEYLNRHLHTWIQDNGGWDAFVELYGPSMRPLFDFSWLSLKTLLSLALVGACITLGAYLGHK
Method: The fluorescence polarisation tests were carried out on microplates (384 wells). […] After incubation for 2 hours, the fluorescence polarisation is measured.

[1] = system: RS4;11 leukaemia tumour line; experiment: In vitro cytotoxicity (Microculture Tetrazolium Assay, 48 hours); type: cell-based; conditions: RS4;11 cells, 48 hours exposure, MTT, concentration that inhibits cell viability by 50%, read-out: IC50 (nM) MTT RS4
Method: The cytotoxicity studies were carried out on the RS4;11 leukaemia tumour line.
The cells are distributed onto microplates and exposed to the test compounds for 48 hours.

[2] = fluorescence polarisation test, concentration that inhibits fluorescence polarisation by 50%

| Structure (SMILES) | IC50 (Bcl-2 protein; [2]) | IC50 ([1]; Homo sapiens) | IC50 (Bcl-2 protein) | IC50 [1] |
| --- | --- | --- | --- | --- |
| Cc1ccc(N(C(=O)c2cc(-c3cc4c(cc3C(=O)N3Cc5ccccc5C[C@H]3CN3CCOCC3)OCO4)n3c2COCC3)c2ccc(O)cc2)cc1F [Example 92, N-(3-Fluoro-4-methylphenyl)-N-(4-hydroxyphenyl)-6-(6-{[(3S)-3-(morpholin-4-ylmethyl)-3,4-dihydroisoquinolin-2(1H)-yl]carbonyl}-1,3-benzodioxol-5-yl)-3,4-dihydro-1H-pyrrolo[2,1-c][1,4]oxazine-8-carboxamide hydrochloride] | 5 nM | 40.2 nM |  |  |
| C[C@H]1COCCN1C[C@@H]1Cc2ccccc2CN1C(=O)c1cc2c(cc1-c1cc(C(=O)N(c3ccc(O)cc3)c3ccc4c(ccn4C)c3)c3n1CCCC3)OCO2 [Example 16, N-(4-Hydroxyphenyl)-N-(1-methyl-1H-indol-5-yl)-3-{6-[((3S)-3-{[(3S)-3-methylmorpholinyl]methyl}-3,4-dihydro-2(1H)-isoquinolinyl)carbonyl]-1,3-benzodioxol-5-yl}-5,6,7,8-tetrahydro-1-indolizine carboxamide hydrochloride] |  |  | 18 nM | 23.4 nM |
| CC(C)N1CCc2cc(N(C(=O)c3cc(-c4cc5c(cc4C(=O)N4Cc6ccccc6C[C@H]4CN4CCOCC4)OCO5)n4ccccc34)c3ccc(O)cc3)ccc21 [Example 64, N-(4-Hydroxyphenyl)-N-(1-isopropyl-2,3-dihydro-1H-indol-5-yl)-3-{6-[((3S)-3-(4-morpholinylmethyl)-3,4-dihydro-2(1H)-isoquinolinyl)carbonyl]-1,3-benzodioxol-5-yl}-1-indolizine carboxamide hydrochloride] | 31 nM | 23.3 nM |  |  |
| CN1CCN(C[C@@H]2Cc3ccccc3CN2C(=O)c2ccc(Cl)cc2-c2cc(C(=O)N(c3ccc(O)cc3)c3ccc4c(ccn4C)c3)c3n2CCC3)CC1 [Example 77, 5-{5-Chloro-2-[((3S)-3-[(4-methyl-1-piperazinyl)methyl]-3,4-dihydro-2(1H)-isoquinolinyl)carbonyl]phenyl}-N-(4-hydroxyphenyl)-N-(1-methyl-1H-indol-5-yl)-2,3-dihydro-1H-pyrrolizine-7-carboxamide bis(hydrochloride)] | 23 nM | 70.4 nM |  |  |
| O=C(c1cc(-c2cc(Cl)ccc2C(=O)N2Cc3ccccc3C[C@H]2CN2CCOCC2)n2c1CCCC2)N(c1ccc(O)cc1)c1cccc(F)c1 [Example 116, 3-(5-Chloro-2-{[(3S)-3-(morpholin-4-ylmethyl)-3,4-dihydroisoquinolin-2(1H)-yl]carbonyl}phenyl)-N-(3-fluorophenyl)-N-(4-hydroxyphenyl)-5,6,7,8-tetrahydroindolizine-1-carboxamide hydrochloride] | 10 nM | 43.6 nM |  |  |
| COCCN1CCN(C[C@@H]2Cc3ccccc3CN2C(=O)c2cc3c(cc2-c2cc(C(=O)N(c4ccccc4)c4ccc(O)cc4)c4n2CCCC4)OCO3)CC1 [Example 105, N-(4-Hydroxyphenyl)-3-(6-{[(3S)-3-{[4-(2-methoxyethyl)piperazin-1-yl]methyl}-3,4-dihydroisoquinolin-2(1H)-yl]carbonyl}-1,3-benzodioxol-5-yl)-N-phenyl-5,6,7,8-tetrahydroindolizine-1-carboxamide bis(hydrochloride)] | 10 nM | 28.9 nM |  |  |
| CSc1ccc(N(C(=O)c2cc(-c3cc(Cl)ccc3C(=O)N3Cc4ccccc4C[C@H]3CN3CCOCC3)n3c2CCCC3)c2ccc(O)cc2)cc1C(F)(F)F [Example 54, 3-{5-Chloro-2-[((3S)-3-(4-morpholinylmethyl)-3,4-dihydro-2(1H)-isoquinolinyl)carbonyl]phenyl}-N-(4-hydroxyphenyl)-N-[4-(methylsulphanyl)-3-(trifluoromethyl)phenyl]-5,6,7,8-tetrahydro-1-indolizine carboxamide hydrochloride] | 180 nM | 106 nM |  |  |
| CCN1CCc2cc(N(C(=O)c3cc(-c4cc5c(cc4C(=O)N4Cc6ccccc6C[C@H]4CN4CCOCC4)OCO5)n4ccccc34)c3ccc(O)cc3)ccc21 [Example 63, N-(1-Ethyl-2,3-dihydro-1H-indol-5-yl)-N-(4-hydroxyphenyl)-3-{6-[((3S)-3-(4-morpholinylmethyl)-3,4-dihydro-2(1H)-isoquinolinyl)carbonyl]-1,3-benzodioxol-5-yl}-1-indolizine carboxamide hydrochloride] | 21 nM | 18.8 nM |  |  |
| CN1CCCc2cc(N(C(=O)c3cc(-c4cc5c(cc4C(=O)N4Cc6ccccc6C[C@H]4CN4CCOCC4)OCCO5)n4c3CCCC4)c3ccc(O)cc3)ccc21 [Example 40, N-(4-Hydroxyphenyl)-N-(1-methyl-1,2,3,4-tetrahydro-6-quinolinyl)-3-{7-[((3S)-3-(4-morpholinylmethyl)-3,4-dihydro-2(1H)-isoquinolinyl)carbonyl]-2,3-dihydro-1,4-benzodioxin-6-yl}-5,6,7,8-tetrahydro-1-indolizine carboxamide hydrochloride] | 15 nM | 32.2 nM |  |  |
| Cc1ccc(N(C(=O)c2cc(-c3cc(F)ccc3C(=O)N3Cc4ccccc4C[C@H]3CN3CCOCC3)n3c2COCC3)c2ccc(O)cc2)cc1F [Example 98, N-(3-Fluoro-4-methylphenyl)-6-(5-fluoro-2-{[(3S)-3-(morpholin-4-ylmethyl)-3,4-dihydroisoquinolin-2(1H)-yl]carbonyl}phenyl)-N-(4-hydroxyphenyl)-3,4-dihydro-1H-pyrrolo[2,1-c][1,4]oxazine-8-carboxamide hydrochloride] | 12 nM | 73.5 nM |  |  |
| O=C(c1cc(-c2cc(Cl)ccc2C(=O)N2Cc3ccccc3C[C@H]2CN2CCOCC2)n2c1CCCC2)N(c1ccccc1)c1ccc(O)cc1 [Example 20, 3-{5-Chloro-2-[((3S)-3-(4-morpholinylmethyl)-3,4-dihydro-2(1H)-isoquinolinyl)carbonyl]phenyl}-N-(4-hydroxyphenyl)-N-phenyl-5,6,7,8-tetrahydro-1-indolizine carboxamide hydrochloride] | 35 nM | 105 nM |  |  |
| Cn1ncc2cc(N(C(=O)c3cc(-c4cc5c(cc4C(=O)N4Cc6ccccc6C[C@H]4CN4CCOCC4)OCCO5)n4c3CCCC4)c3ccc(O)cc3)ccc21 [Example 39, N-(4-Hydroxyphenyl)-N-(1-methyl-1H-indazol-5-yl)-3-{7-[((3S)-3-(4-morpholinylmethyl)-3,4-dihydro-2(1H)-isoquinolinyl)carbonyl]-2,3-dihydro-1,4-benzodioxin-6-yl}-5,6,7,8-tetrahydro-1-indolizine carboxamide hydrochloride] | 16 nM | 14.1 nM |  |  |
| Cn1ccc2cc(N(C(=O)c3cc(-c4cc(Br)ccc4C(=O)N4Cc5ccccc5C[C@H]4CN4CCOCC4)n4c3CCCC4)c3ccc(O)cc3)ccc21 [Example 18, 3-{5-Bromo-2-[((3S)-3-(4-morpholinylmethyl)-3,4-dihydro-2(1H)-isoquinolinyl)carbonyl]phenyl}-N-(4-hydroxyphenyl)-N-(1-methyl-1H-indol-5-yl)-5,6,7,8-tetrahydro-1-indolizine carboxamide hydrochloride] | 32 nM | 24.9 nM |  |  |
| CCN(CC)c1ccc(N(C(=O)c2cc(-c3cc(Cl)ccc3C(=O)N3Cc4ccccc4C[C@H]3CN3CCOCC3)n3c2CCCC3)c2ccc(O)cc2)cc1 [Example 28, 3-{5-Chloro-2-[((3S)-3-(4-morpholinylmethyl)-3,4-dihydro-2(1H)-isoquinolinyl)carbonyl]phenyl}-N-[4-(diethylamino)phenyl]-N-(4-hydroxyphenyl)-5,6,7,8-tetrahydro-1-indolizine carboxamide hydrochloride] | 25 nM | 76.1 nM |  |  |
| O=C(c1cc(-c2cc(F)ccc2C(=O)N2Cc3ccccc3C[C@H]2CN2CCOCC2)n2c1CC(O)CC2)N(c1ccccc1)c1ccc(O)cc1 (stereo partly drawn) [Example 100, 3-(5-Fluoro-2-{[(3S)-3-(morpholin-4-ylmethyl)-3,4-dihydroisoquinolin-2(1H)-yl]carbonyl}phenyl)-7-hydroxy-N-(4-hydroxyphenyl)-N-phenyl-5,6,7,8-tetrahydroindolizine-1-carboxamide hydrochloride] | 22 nM | 856 nM |  |  |
| CN1CCOc2cc(N(C(=O)c3cc(-c4cc5c(cc4C(=O)N4Cc6ccccc6C[C@H]4CN4CCOCC4)OCCO5)n4c3CCCC4)c3ccc(O)cc3)ccc21 [Example 41, N-(4-Hydroxyphenyl)-N-(4-methyl-3,4-dihydro-2H-1,4-benzoxazin-7-yl)-3-{7-[((3S)-3-(4-morpholinylmethyl)-3,4-dihydro-2(1H)-isoquinolinyl)carbonyl]-2,3-dihydro-1,4-benzodioxin-6-yl}-5,6,7,8-tetrahydro-1-indolizine carboxamide hydrochloride] | 26 nM | 44 nM |  |  |
| O=C(c1cc(-c2cc(F)ccc2C(=O)N2Cc3ccccc3C[C@H]2CN2CCOCC2)n2c1COCC2)N(c1ccc(O)cc1)c1ccc(F)cc1 [Example 99, 6-(5-Fluoro-2-{[(3S)-3-(morpholin-4-ylmethyl)-3,4-dihydroisoquinolin-2(1H)-yl]carbonyl}phenyl)-N-(4-fluorophenyl)-N-(4-hydroxyphenyl)-3,4-dihydro-1H-pyrrolo[2,1-c][1,4]oxazine-8-carboxamide hydrochloride] | 25 nM | 213 nM |  |  |
| CCn1ccc2cc(N(C(=O)c3cc(-c4cc5c(cc4C(=O)N4Cc6ccccc6C[C@H]4CN4CCOCC4)OCO5)n4ccccc34)c3ccc(O)cc3)ccc21 [Example 60, N-(1-Ethyl-1H-indol-5-yl)-N-(4-hydroxyphenyl)-3-{6-[((3S)-3-(4-morpholinylmethyl)-3,4-dihydro-2(1H)-isoquinolinyl)carbonyl]-1,3-benzodioxol-5-yl}-1-indolizine carboxamide hydrochloride] | 19 nM | 11.7 nM |  |  |
